Literature values in patent US11369619B2, “Composition for curing migraine headaches” (priority 2014, dated 2022).

Assays:
male mice = conditions: intravenous
migraine = conditions: topical administration
[1] = taken orally, dosages of several hundred milligrams per day

In the case of `C[C@@H]1C[C@H]2[C@@H]3CCC4=CC(=O)C=C[C@]4(C)[C@@]3(F)[C@@H](O)C[C@]2(C)[C@@]1(O)C(=O)COP(=O)(O)O` [dexamethasone sodium phosphate], the LD50 (male mice) is given as 794 mg/kg.
In the case of `CCN(CC)CC(=O)Nc1c(C)cccc1C` [lidocaine], the “patients in whom treatment was effective” value (migraine) is listed as “about 55%”.
For `Cc1ncc(C[n+]2csc(CCO)c2C)c(N)n1` [thiamine], the adverse effects [1] is listed as “no reports of adverse effects”.
For `C[C@@H]1C[C@H]2[C@@H]3CCC4=CC(=O)C=C[C@]4(C)[C@@]3(F)[C@@H](O)C[C@]2(C)[C@@]1(O)C(=O)COP(=O)(O)O` [Dexamethasone phosphate], the solubility in water is listed as “practically insoluble in water”.
